Assay results from patent US12091425B2 (AMGEN INC., priority 2016, dated 2024).

Legend:
[1] = biological target: T1, Mcl-1/Bim interaction, recombinant human Mcl-1 (171-327) (Homo sapiens, UniProt Q07820); test: Cell free Mcl-1: Bim Affinity Assay (Mcl-1 HTRF); assay type: binding
T1 construct: made in house
Method in brief: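 Compounds were mixed with the protein and a biotinylated Bim peptide spanning human residues 51-76. Plates were left overnight, then TR-FRET signal was measured. A four-parameter sigmoidal model applied to duplicate competition data gave IC50.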

[2] = tested on: OPM-2 human multiple myeloma cell line; test: Cell Viability Assay (OPM-2 10 FBS); assay type: cell-based; details: OPM-2 cells, 16 h, CellTiter-Glo
Method in brief: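 IC50 from 4-parameter logistic fit of CellTiter-Glo luminescence. 3000 cells/well, 10% FBS medium, serial compound dilutions, 16 h, 37 °C/5% CO2; read 25 min post-reagent.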

[3] = TR-FRET, 0.1 nM Mcl-1 (171-327), 0.05 nM biotin-Bim (51-76)
[4] = cell free Mcl-1:Bim TR-FRET, recombinant human Mcl-1 (171-327)

T1 sequence (Q07820 171-327): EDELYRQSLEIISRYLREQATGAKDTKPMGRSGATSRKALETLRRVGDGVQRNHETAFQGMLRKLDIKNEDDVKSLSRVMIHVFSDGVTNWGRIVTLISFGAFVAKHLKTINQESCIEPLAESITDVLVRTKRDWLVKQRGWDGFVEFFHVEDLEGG

| SMILES | IC50 [1, 3] [nM] | IC50 ([2]; Homo sapiens, OPM-2, 16 h) [nM] | IC50 [2] [nM] | IC50 [1, 4] [nM] |
| --- | --- | --- | --- | --- |
| COCC1C(C)CC=CC(OC)C2CCC2CN2CC3(CCCc4cc(Cl)ccc43)COc3ccc(cc32)C(=O)NS1(=O)=O (single isomer, unassigned) [Example 460] | 0.334 | 132 |  |  |
| COC[C@H]1[C@@H](C)C/C=C/[C@H](OC)[C@@H]2CC[C@H]2CN2C[C@@]3(CCCc4cc(Cl)ccc43)COc3ccc(cc32)C(=O)NS1(=O)=O (single isomer, unassigned) [Example 461] | 1.79 |  | 775 |  |
| COCCOC1C=CCC(C)C(COC)S(=O)(=O)NC(=O)c2ccc3c(c2)N(CC2CCC21)CC1(CCCc2cc(Cl)ccc21)CO3 (single isomer, unassigned) [Example 463] | 0.416 | 122 |  |  |
| COCCO[C@H]1/C=C/C[C@H](C)[C@H](COC)S(=O)(=O)NC(=O)c2ccc3c(c2)N(C[C@@H]2CC[C@H]21)C[C@@]1(CCCc2cc(Cl)ccc21)CO3 (single isomer, unassigned) [Example 464] | 1.49 |  | 650 |  |
| CCOC[C@@H]1[C@@H](C)C/C=C/[C@H](O)[C@@H]2CC[C@H]2CN2C[C@@]3(CCCc4cc(Cl)ccc43)COc3ccc(cc32)C(=O)NS1(=O)=O (single isomer, unassigned) [Example 466] | 0.331 |  | 128 |  |
| CCOC[C@H]1[C@@H](C)C/C=C/[C@H](O)[C@@H]2CC[C@H]2CN2C[C@@]3(CCCc4cc(Cl)ccc43)COc3ccc(cc32)C(=O)NS1(=O)=O (single isomer, unassigned) [Example 467] | 1.45 |  | 1510 |  |
| C=C1[C@@H](C)C/C=C/[C@H](O)[C@@H]2CC[C@H]2CN2C[C@@]3(CCCc4cc(Cl)ccc43)COc3ccc(cc32)C(=O)NS1(=O)=O (single isomer, unassigned) [Example 468] | 0.299 | 262 |  |  |
| CCOC[C@@H]1[C@@H](C)C/C=C/[C@H](OC)[C@@H]2CC[C@H]2CN2C[C@@]3(CCCc4cc(Cl)ccc43)COc3ccc(cc32)C(=O)NS1(=O)=O (single isomer, unassigned) [Example 469] | 0.973 |  | 334 |  |
| CC[C@@H]1[C@@H](OCCOC)C/C=C/[C@H](O)[C@@H]2CC[C@H]2CN2C[C@@]3(CCCc4cc(Cl)ccc43)COc3ccc(cc32)C(=O)NS1(=O)=O (single isomer, unassigned) [Example 470] |  |  | 355 | 0.726 |
| COCC1CC(C)C=CC(O)C2CCC2CN2CC3(CCCc4cc(Cl)ccc43)COc3ccc(cc32)C(=O)NS1(=O)=O (single isomer, unassigned) [Example 471] |  | 141 |  | 0.188 |
| COC[C@@H]1C[C@H](C)/C=C/[C@H](O)[C@@H]2CC[C@H]2CN2C[C@@]3(CCCc4cc(Cl)ccc43)COc3ccc(cc32)C(=O)NS1(=O)=O (single isomer, unassigned) [Example 472] |  |  | 206 | 0.27 |
| COC[C@@H]1C[C@@H](C)/C=C/[C@H](OC)[C@@H]2CC[C@H]2CN2C[C@@]3(CCCc4cc(Cl)ccc43)COc3ccc(cc32)C(=O)NS1(=O)=O (single isomer, unassigned) [Example 473] |  |  | 160 | 0.369 |
| COCC[C@@H]1C[C@@H](C)/C=C/[C@H](O)[C@@H]2CC[C@H]2CN2C[C@@]3(CCCc4cc(Cl)ccc43)COc3ccc(cc32)C(=O)NS1(=O)=O (single isomer, unassigned) [Example 477] |  |  | 286 | 0.311 |
| COCC[C@@H]1C[C@H](C)/C=C/[C@H](O)[C@@H]2CC[C@H]2CN2C[C@@]3(CCCc4cc(Cl)ccc43)COc3ccc(cc32)C(=O)NS1(=O)=O (single isomer, unassigned) [Example 478] |  |  | 468 | 0.197 |
| COCC[C@H]1C[C@H](C)/C=C/[C@H](O)[C@@H]2CC[C@H]2CN2C[C@@]3(CCCc4cc(Cl)ccc43)COc3ccc(cc32)C(=O)NS1(=O)=O (single isomer, unassigned) [Example 479] |  |  | 8120 | 5.37 |
| CC(C)C[C@@H]1C[C@@H](C)/C=C/[C@H](O)[C@@H]2CC[C@H]2CN2C[C@@]3(CCCc4cc(Cl)ccc43)COc3ccc(cc32)C(=O)NS1(=O)=O (single isomer, unassigned) [Example 480] |  |  | 1080 | 0.394 |
| CC(C)CC1CC(C)C=CC(O)C2CCC2CN2CC3(CCCc4cc(Cl)ccc43)COc3ccc(cc32)C(=O)NS1(=O)=O (single isomer, unassigned) [Example 482] |  | 7640 |  | 7.52 |
| COCC[C@@H]1C[C@@H](C)/C=C/[C@H](OC)[C@@H]2CC[C@H]2CN2C[C@@]3(CCCc4cc(Cl)ccc43)COc3ccc(cc32)C(=O)NS1(=O)=O (single isomer, unassigned) [Example 484] |  |  | 412 | 0.331 |

| SMILES | IC50 [1, 3] [nM] | IC50 ([2]; Homo sapiens, OPM-2, 16 h) [nM] | IC50 [2] [nM] | IC50 [1, 4] [nM] |
| --- | --- | --- | --- | --- |
| COCC[C@@H]1C[C@H](C)/C=C/[C@H](OC)[C@@H]2CC[C@H]2CN2C[C@@]3(CCCc4cc(Cl)ccc43)COc3ccc(cc32)C(=O)NS1(=O)=O (single isomer, unassigned) [Example 485] |  |  | 558 | 0.471 |
| CO[C@H]1/C=C/[C@H](O)[C@@H]2CC[C@H]2CN2C[C@@]3(CCCc4cc(Cl)ccc43)COc3ccc(cc32)C(=O)NS(=O)(=O)[C@H](C)C1 (single isomer, unassigned) [Example 487] |  |  | 5800 | 1.05 |
| CO[C@H]1/C=C/[C@H](O)[C@@H]2CC[C@H]2CN2C[C@@]3(CCCc4cc(Cl)ccc43)COc3ccc(cc32)C(=O)NS(=O)(=O)[C@@H](C)C1 (single isomer, unassigned) [Example 488] |  |  | 12900 | 5.21 |
| CO[C@@H]1/C=C/[C@H](O)[C@@H]2CC[C@H]2CN2C[C@@]3(CCCc4cc(Cl)ccc43)COc3ccc(cc32)C(=O)NS(=O)(=O)[C@H](C)C1 (single isomer, unassigned) [Example 489] |  |  | 1220 | 0.666 |
| CO[C@@H]1/C=C/[C@H](O)[C@@H]2CC[C@H]2CN2C[C@@]3(CCCc4cc(Cl)ccc43)COc3ccc(cc32)C(=O)NS(=O)(=O)[C@@H](C)C1 (single isomer, unassigned) [Example 490] |  |  | 7960 | 2.09 |
| C[C@H]1/C=C/[C@H](O)[C@@H]2CC[C@H]2CN2C[C@@]3(CCCc4cc(Cl)ccc43)COc3ccc(cc32)C(=O)NS(=O)(=O)CC1 (single isomer, unassigned) [Example 491] |  |  | 3480 | 0.774 |
| C[C@H]1/C=C/[C@@H](O)[C@@H]2CC[C@H]2CN2C[C@@]3(CCCc4cc(Cl)ccc43)COc3ccc(cc32)C(=O)NS(=O)(=O)CC1(C)C (single isomer, unassigned) [Example 494] |  |  | 3680 | 8.81 |
| CO[C@H](C)C[C@H]1CC/C=C/[C@H](O)[C@@H]2CC[C@H]2CN2C[C@@]3(CCCc4cc(Cl)ccc43)COc3ccc(cc32)C(=O)NS1(=O)=O (single isomer, unassigned) [Example 508] |  |  | 2470 | 6.02 |
| CO[C@H](C)C[C@H]1CC/C=C/[C@H](O)[C@@H]2CC[C@H]2CN2C[C@@]3(CCCc4cc(Cl)ccc43)COc3ccc(cc32)C(=O)NS1(=O)=O (single isomer, unassigned) [Example 514] |  |  | 165 | 0.391 |
| C[C@@H]1[C@@H](C)C/C=C/[C@H](OC[C@@H](C)O)[C@@H]2CC[C@H]2CN2C[C@@]3(CCCc4cc(Cl)ccc43)COc3ccc(cc32)C(=O)NS1(=O)=O (single isomer, unassigned) [Example 527] |  |  | 64.7 | 0.217 |
| C[C@@H]1[C@@H](C)C/C=C/[C@H](OC[C@@H](C)O)[C@@H]2CC[C@H]2CN2C[C@@]3(CCCc4cc(Cl)ccc43)COc3ccc(cc32)C(=O)NS1(=O)=O (single isomer, unassigned) [Example 528] |  |  | 69.6 | 0.253 |
| CO[C@H](C)CC1[C@@H](C)C/C=C/[C@H](O)[C@@H]2CC[C@H]2CN2C[C@@]3(CCCc4cc(Cl)ccc43)COc3ccc(cc32)C(=O)NS1(=O)=O (single isomer, unassigned) [Example 529] |  |  | 754 | 0.97 |
| CO[C@H](C)C[C@@H]1[C@@H](C)C/C=C/[C@H](OC)[C@@H]2CC[C@H]2CN2C[C@@]3(CCCc4cc(Cl)ccc43)COc3ccc(cc32)C(=O)NS1(=O)=O (single isomer, unassigned) [Example 535] |  | 162 |  | 0.389 |
| CO[C@H](C)C[C@@H]1[C@@H](C)C/C=C/[C@H](O)[C@@H]2CC[C@H]2CN2C[C@@]3(CCCc4cc(Cl)ccc43)COc3ccc(cc32)C(=O)NS1(=O)=O (single isomer, unassigned) [Example 540] |  |  | 94.1 | 0.236 |
| CO[C@H]1/C=C\CC[C@@H](C[C@@H](C)O)S(=O)(=O)NC(=O)c2ccc3c(c2)N(C[C@@H]2CC[C@H]21)C[C@@]1(CCCc2cc(Cl)ccc21)CO3 (single isomer, unassigned) [Example 543] |  |  | 699 | 0.535 |
| C[C@@H](O)C[C@@H]1CC/C=C/[C@H](O)[C@@H]2CC[C@H]2CN2C[C@@]3(CCCc4cc(Cl)ccc43)COc3ccc(cc32)C(=O)NS1(=O)=O (single isomer, unassigned) [Example 544] |  |  | 1520 | 0.193 |
| C[C@H](O)C[C@@H]1CC/C=C/[C@H](O)[C@@H]2CC[C@H]2CN2C[C@@]3(CCCc4cc(Cl)ccc43)COc3ccc(cc32)C(=O)NS1(=O)=O (single isomer, unassigned) [Example 546] |  |  | 854 | 0.28 |
| C[C@H](O)C[C@@H]1CC/C=C\[C@H](O)[C@@H]2CC[C@H]2CN2C[C@@]3(CCCc4cc(Cl)ccc43)COc3ccc(cc32)C(=O)NS1(=O)=O (single isomer, unassigned) [Example 547] |  |  | 2220 | 0.239 |
